System: opiate receptor
Assay: Specific binding affinity of radio-iodinated peaks for the opiate receptor
Conditions: monoiodinated (first peak) compared with diiodinated (second peak) compound
Method: The material comprising this peak was applied to a Sephadex 2-(diethylamino)ethyl ether column and eluted with sodium borate buffer (12.5 mM, pH 9.0, 0.1 N sodium chloride).

CC(C)C[C@H](NC(=O)[C@H](Cc1ccccc1)NC(=O)CNC(=O)[C@@H](C)NC(=O)[C@@H](N)Cc1ccc(O)c([125I])c1)C(=O)O [material of the first peak, H.Tyr(3-^125 I).D-Ala.Gly.Phe.Leu.OH]
specific binding affinity (for the opiate receptor): greater specific binding affinity (for the opiate receptor) than that of the second peak
